According to patent US20220160714A1, “METHODS FOR TREATING COLORECTAL CANCER” (ICAHN SCHOOL OF MEDICINE AT MOUNT SINAI, priority 2019, published 2022):

System: patient's personalized Drosophila model 006.1
Assay: Trametinib combination drug screen (Table 4B, experimental pupae numbers)
Assay type: in vivo
Procedure, shortened: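 Experimental and control embryos (1:2 ratio) from the UAS-006.1/ago and apc RNAi byn-gal4 tub-gal80^ts cross, laid at 22 °C, dispensed onto drug-containing food, then shifted to 25 °C to induce transgene expression. Surviving experimental pupae counted per tube after 2 weeks; DMSO and Trametinib alone as controls.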

[1] = drug screened in combination with trametinib
[2] = drug screened in combination with trametinib, mean of 8 replicates

SMILES	EP (raw experimental pupae numbers), replicate 1 [1]	EP (raw experimental pupae numbers), replicate 2 [1]	EP (raw experimental pupae numbers), replicate 3 [1]	EP (raw experimental pupae numbers), replicate 4 [1]	EP (raw experimental pupae numbers), replicate 5 [1]	EP (raw experimental pupae numbers), replicate 6 [1]	EP (raw experimental pupae numbers), replicate 7 [1]	EP (raw experimental pupae numbers), replicate 8 [1]	EP mean (in vivo)	EP mean [2]
CNCCC(Oc1ccc(C(F)(F)F)cc1)c1ccccc1 (stereo not drawn) [fluoxetine]	2	2	0	0	7	1	0	1	1.625	
O=C(c1ccc(F)c(F)c1Nc1ccc(I)cc1F)N1CC(O)([C@@H]2CCCCN2)C1 [cobimetinib]	1	1	2	0	1	0	0	0		0.625
CCOC(=O)N[C@@H]1CC[C@@H]2[C@@H](C1)C[C@H]1C(=O)O[C@H](C)[C@H]1[C@H]2/C=C/c1ccc(-c2cccc(F)c2)cn1 [vorapaxar]	0	0	1	0	3	0	0	0		0.5
CC(=O)O[C@]1(C(C)=O)CC[C@H]2[C@@H]3C=C(C)C4=CC(=O)CC[C@]4(C)[C@H]3CC[C@@]21C [megestrol acetate]	0	1	1	0	1	2	1	2	1	
NCCCNCCSP(=O)(O)O [amifostine]	1	1	1	0	1	6	0	0		1.25
CC(C)(C)N.CCC[C@H](N[C@@H](C)C(=O)N1[C@H](C(=O)O)C[C@@H]2CCCC[C@@H]21)C(=O)OCC [perindropil erbumine]	0	0	3	3	5	1	2	2	2	
OC[C@H]1O[C@@H](c2ccc(Cl)c(Cc3ccc(O[C@H]4CCOC4)cc3)c2)[C@H](O)[C@@H](O)[C@@H]1O [empagliflozin]	4	0	0	2	5	2	1	2		2
NS(=O)(=O)Cc1noc2ccccc12 [zonisamide]	0	2	0	1	3	1	1	0		1
CCOc1ccc(Cc2cc([C@@H]3O[C@H](CO)[C@@H](O)[C@H](O)[C@H]3O)ccc2Cl)cc1 [dapagliflozin]	0	1	1	1	3	5	2	0		1.625
Cc1ccc(C)c(OCCCC(C)(C)C(=O)O)c1 [gemfibrozil]	0	1	0	0	3	0	0	0		0.5
